Measured values taken from publication PMC10369045, “Radiolabelling of peptides with tetrazine ligation based on the inverse electron-demand Diels–Alder reaction: rapid, catalyst-free and mild conversion of 1,4-dihydropyridazines to pyridazines” (RSC Advances, 2023).

Legend:
[1] = Reversed-phase HPLC-RAD/DAD retention of DHP and pyridazine forms; assay type: physicochemical; conditions: HPLC-RAD/DAD and HPLC-RAD/UV, Kinetex 5 µm C18 250 × 10.0 mm, 20-50% B in 20 min, H2O/ACN + 0.1% TFA, 3 mL/min, room temperature; elution order used as indication of lipophilicity
Method: The HPLC instruments were equipped with either two channel UV/VIS or a PDA detector, and a NaI(Tl) scintillation detector for detection of radioactivity.
Table S2. The gradient used for HPLC-RAD/DAD studies.
Flow rate: 3 mL/min at room temperature
Column: Phenomenex Kinetex® 5 µm C18 100 Å, LC Column 250 × 10.0 mm
Eluents: (A) H2O+0.1% Trifluoroacetic acid and (B) ACN +0.1% Trifluoroacetic acid

[2] = Incubation tests of IEDDA cycloaddition product (conversion of DHPs to oxidized pyridazine form); assay type: physicochemical; conditions: for [18F]AmBF3(ox.)-TOC (%) / Conversion to oxidized form of the peptide cycloadduct: radio-HPLC; for Conversion to oxidized form of the peptide cycloadduct: incubation in ≥95% (v/v) water at 60 °C
Method: Protic solvents in acidic reaction conditions at various temperatures were used in-order to investigate the conditions that might influence the formation of the oxidized form from DHPs or that might slow down the process. […] The (radio)peaks of [^19F/^18F]6(a, b) (peptide 6, tR = 20 min) were successfully converted (≥97%) to the more polar compound (peptide 6, tR = 17 min) by incubation in increasing amounts of water in acetonitrile (Fig. 2C). When incubating in 75% (v/v) ACN in water for 10 min at 60 °C, the conversion to polar (peptide 6, tR = 17 min) compound was 59% (ESI Table S7 ^†).
Table S7. Incubation tests of IEDDA cycloaddition product.
Peptide Peptide Solvent Vol. pH Temp. Time [18F] AmBF3 (ox.)-
(nmol) (v/v-%) (µL) (°C) (min) TOC (%)

[3] = tested on: SSTR2-expressing rat pancreatic adenocarcinoma AR42J cells; experiment: Cell uptake assay in AR42J cells; assay type: cell-based; conditions: oxidized pyridazine form, gamma counting
Method: Aoct=activity in the octanol phase
APBS=activity in the PBS phase
Cell-uptake assay in AR42J
The cells were cultured in Gibco™ F-12K Medium
1×PBS was prepared from Phosphate Buffered Saline
Tablets (Fisher Bioreagents, Hampton, USA) in water. 1.0 M Sodium hydroxide was purchased from VWR […]
Chemicals. […] AR42J cells (1×106 per […]
well) were seeded overnight on 6-well plates.
Another set of cells were co-incubated in […]
microtube (=free fraction). […]
washing the cells with cold 1×PBS. […] 1 M NaOH […]
microtube (=internalized fraction).

tumour = conditions: ex vivo biodistribution and PET/CT imaging; tumour uptake efficiently blocked; ref earlier cohort by us; cited from earlier work
Method: In this study, we report a rapid, mild, and facile method for converting dihydropyridazine cycloaddition products to pyridazine during IEDDA, in only 10 minutes.

[4] = Lipophilicity (LogD7.4), shake-flask method
Method: Lipophilicity. Shake-flask method was used for determining the lipophilicities (LogD7.4) of the radiolabeled
compounds. LogD7.4 was determined as a distribution of radioactivity between 0.01 M PBS and octanol. The
purified radiolabeled compound (25 µL) was added to a 1:1 mixture of 1-octanol and 0.02 M PBS (pH 7.4) in
a 1.5 mL microtube. The mixture was shaken mechanically at 500 rpm for 10 minutes, centrifuged (1000 × g,
5 minutes), and the layers were separated, followed by pipetting a sample (500 µL) from each layer into a pre-
weighed polypropylene tube. The radioactivity in the sample was measured with a Wizard gamma counter.
The distribution of the radiolabeled compound between the octanol and the PBS layers was calculated

## C[C@@H](O)[C@@H]1NC(=O)[C@H](CCCCN)NC(=O)[C@@H](Cc2c[nH]c3ccccc23)NC(=O)[C@H](Cc2ccc(O)cc2)NC(=O)[C@@H](NC(=O)[C@@H](Cc2ccccc2)NC(=O)CCOCCOCCOCCOCCON=Cc2ccc(C(=O)NCCOCCOCCOCCNC(=O)OC3CCCC4=C(c5ccc(CC(=O)NCC[N+](C)(C)C[B-](F)(F)F)cc5)NN=CC4CC3)cc2)CSSC[C@@H](C(=O)N[C@H](CO)[C@@H](C)O)NC1=O (stereo partly shown) [[18F]6 (DHP, a)]
[1]
  Retention time: 20.6 min

## C[C@@H](O)[C@@H]1NC(=O)[C@H](CCCCN)NC(=O)[C@@H](Cc2c[nH]c3ccccc23)NC(=O)[C@H](Cc2ccc(O)cc2)NC(=O)[C@@H](NC(=O)[C@@H](Cc2ccccc2)NC(=O)CCOCCOCCOCCOCCON=Cc2ccc(C(=O)NCCOCCOCCOCCNC(=O)OC3CCCc4cnnc(-c5ccc(CC(=O)NCC[N+](C)(C)C[B-](F)(F)F)cc5)c4CC3)cc2)CSSC[C@@H](C(=O)N[C@H](CO)[C@@H](C)O)NC1=O (stereo partly shown) [[18F]6, AmBF3-PEG7-TOC]
[2]; 2 nmol peptide, ACN:H2O (25:75), 60 µL, 60 °C, 15 min, n = 1
  [18F]AmBF3(ox.)-TOC (%): 84%
[2]; 2.5 nmol peptide, 0.15 mM citrate buffer, 180 µL, pH 3.75, 60 °C, 10 min
  [18F]AmBF3(ox.)-TOC (%): 9%
[2]; 2.5 nmol peptide, ACN:H2O (25:75), 20 µL, 60 °C, 10 min
  [18F]AmBF3(ox.)-TOC (%): 89%
[2]; 2.5 nmol peptide, ACN:H2O (40:60), 25 µL, 60 °C, 15 min, n = 1
  [18F]AmBF3(ox.)-TOC (%): 77%
[2]; 2.5 nmol peptide, ACN:H2O (75:25), 20 µL, 60 °C, 10 min, n = 1
  [18F]AmBF3(ox.)-TOC (%): 59%
[2]; 5 nmol peptide, 0.01 mM citrate buffer, 180 µL, pH 4, 37 °C, 10 min
  [18F]AmBF3(ox.)-TOC (%): 4%
[2]; 5 nmol peptide, 0.15 mM citrate buffer, 180 µL, pH 3.75, 37 °C, 10 min
  [18F]AmBF3(ox.)-TOC (%): 5%
[2]; 5 nmol peptide, 10 x PBS, 180 µL, pH 6.8, 37 °C, 10 min
  [18F]AmBF3(ox.)-TOC (%): 5%
[2]; 7.5 nmol peptide, ACN:H2O (13:87), 150 µL, 60 °C, 10 min
  [18F]AmBF3(ox.)-TOC (%): 25%
[2]; 7.5 nmol peptide, ACN:H2O (25:75), 20 µL, 40 °C, 20 min
  [18F]AmBF3(ox.)-TOC (%): 86%
[2]; 2-50 nmol peptide, ACN:H2O (≥95% H2O), 20-200 µL, 60 °C, 10 min, n = 1
  [18F]AmBF3(ox.)-TOC (%): 100%
[2]; collected HPLC fraction left at room temperature for 18 hours (overnight), HPLC-DAD and UHPLC-HRMS
  Conversion of DHP peak cluster (tR ≈ 20 min) to single oxidized peak (tR = 17 min) at room temperature: total conversion
[2]
  Conversion to oxidized form of the peptide cycloadduct: full conversion
[3]; 1 million AR42J cells per well, 37 °C, triplicates per timepoint, blocked by co-incubation with excess non-radiolabelled octreotide
  Cell uptake in AR42J cells (specificity, blocking with octreotide): specific uptake
[3]; internalized fraction after glycine buffer (pH 2.8) wash and 1 M NaOH lysis
  Internalization by AR42J cells: internalized by the cells
tumour
  Tumour visualization in vivo: able to visualize the tumour in vivo
[4]; shake-flask 1-octanol/PBS (pH 7.4) 1:1, 25 µL purified radiolabelled compound, shaken 500 rpm 10 min, centrifuged 1000 × g 5 min, gamma counter, mean ± SD, n = 3-4, HPLC-separated fractions (DHP a 77%, DHP b 88% pure), listed as [^18F]6(ox.)
  LogD7.4: −0.73 ± 0.12

## C[C@@H](O)[C@@H]1NC(=O)[C@H](CCCCN)NC(=O)[C@@H](Cc2c[nH]c3ccccc23)NC(=O)[C@H](Cc2ccc(O)cc2)NC(=O)[C@@H](NC(=O)[C@@H](Cc2ccccc2)NC(=O)CCOCCOCCOCCOCCON=Cc2ccc(CNC(=O)OC3CCCc4cnnc(-c5ccc(CC(=O)NCC[N+](C)(C)C[B-](F)(F)F)cc5)c4CC3)cc2)CSSC[C@@H](C(=O)N[C@H](CO)[C@@H](C)O)NC1=O (stereo partly shown) [[18F]5 (ox.), AmBF3-PEG4-TOC]
[2]
  Conversion to oxidized form of the peptide cycloadduct: full conversion
[1]
  Retention time: 18.7 min
[4]; pH 7.4
  logD: 0.58 ± 0.06

## C[C@@H](O)[C@@H]1NC(=O)[C@H](CCCCN)NC(=O)[C@@H](Cc2c[nH]c3ccccc23)NC(=O)[C@H](Cc2ccc(O)cc2)NC(=O)[C@@H](NC(=O)[C@@H](Cc2ccccc2)NC(=O)CCOCCOCCOCCOCCON=Cc2ccc(C(=O)NCCOCCOCCOCCNC(=O)OC3CCCC4=C(c5ccc(CC(=O)NCC[N+](C)(C)C[B-](F)(F)F)cc5)NN=CC4CC3)cc2)CSSC[C@@H](C(=O)N[C@H](CO)[C@@H](C)O)NC1=O (stereo partly shown) [[18F]6 (DHP, b)]
[1]
  Retention time: 20.2 min
